From ChEMBL document CHEMBL1201862, “PubChem BioAssay data set” (2004)
One block for each molecule: values may come before it. Active and inactive are the calls of the source.

Legend:
[1] = target: T1, Heat shock factor protein 1 (Mus musculus, UniProt P38532); assay: enhancement of HSF1-driven luciferase signal – cell-based, NIH3T3, luminescence, dose retest, confirmation (AID 435004); format: functional;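 also: stress induced by proteasome inhibitor MG132 added 30 min after compound; luciferase reporter driven by HSF1 response element in NIH3T3 cells; actives raise luminescence as potentiators of the MG132 stress response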
T1 sequence (P38532 whole entry): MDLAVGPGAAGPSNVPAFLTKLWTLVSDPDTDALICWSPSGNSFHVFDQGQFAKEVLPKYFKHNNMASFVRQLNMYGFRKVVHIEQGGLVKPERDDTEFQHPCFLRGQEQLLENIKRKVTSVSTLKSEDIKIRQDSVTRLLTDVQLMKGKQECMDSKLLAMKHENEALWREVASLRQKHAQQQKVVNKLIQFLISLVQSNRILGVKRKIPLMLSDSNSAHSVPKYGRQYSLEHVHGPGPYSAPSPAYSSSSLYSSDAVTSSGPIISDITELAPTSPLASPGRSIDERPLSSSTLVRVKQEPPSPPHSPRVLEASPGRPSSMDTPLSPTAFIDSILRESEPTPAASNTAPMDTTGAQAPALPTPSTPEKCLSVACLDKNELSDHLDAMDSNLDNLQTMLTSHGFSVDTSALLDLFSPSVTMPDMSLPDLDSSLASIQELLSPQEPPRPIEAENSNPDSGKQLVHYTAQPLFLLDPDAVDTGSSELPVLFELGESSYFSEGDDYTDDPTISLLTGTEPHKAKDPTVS

Cytochrome P450 2C19 = Cytochrome P450 2C19 (Homo sapiens, UniProt P33261); assay: Cytochrome panel assay with activity outcomes. Panel member name: p450-cyp2c19 Compounds with AC50 equal or less than 10 uM are considered active; format: functional; settings: read-out: AC50
Chain of Cytochrome P450 2C19 (P33261 whole entry): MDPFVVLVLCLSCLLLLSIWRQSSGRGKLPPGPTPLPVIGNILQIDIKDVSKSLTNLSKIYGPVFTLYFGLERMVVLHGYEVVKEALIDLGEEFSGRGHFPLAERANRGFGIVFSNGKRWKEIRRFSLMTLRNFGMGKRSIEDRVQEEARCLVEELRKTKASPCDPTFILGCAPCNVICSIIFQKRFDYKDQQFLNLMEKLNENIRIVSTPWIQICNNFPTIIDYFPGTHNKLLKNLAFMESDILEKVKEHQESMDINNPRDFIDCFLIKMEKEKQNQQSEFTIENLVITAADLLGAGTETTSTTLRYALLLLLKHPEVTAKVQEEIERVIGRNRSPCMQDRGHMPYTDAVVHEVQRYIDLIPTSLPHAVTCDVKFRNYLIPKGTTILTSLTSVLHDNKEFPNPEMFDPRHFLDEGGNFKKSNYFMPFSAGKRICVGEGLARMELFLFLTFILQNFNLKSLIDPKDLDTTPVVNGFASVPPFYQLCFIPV

Cytochrome P450 2D6 = Cytochrome P450 2D6 (Homo sapiens, UniProt P10635);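 also: CYP2D6 member of a cytochrome P450 panel assay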
Chain of Cytochrome P450 2D6 (P10635 whole entry): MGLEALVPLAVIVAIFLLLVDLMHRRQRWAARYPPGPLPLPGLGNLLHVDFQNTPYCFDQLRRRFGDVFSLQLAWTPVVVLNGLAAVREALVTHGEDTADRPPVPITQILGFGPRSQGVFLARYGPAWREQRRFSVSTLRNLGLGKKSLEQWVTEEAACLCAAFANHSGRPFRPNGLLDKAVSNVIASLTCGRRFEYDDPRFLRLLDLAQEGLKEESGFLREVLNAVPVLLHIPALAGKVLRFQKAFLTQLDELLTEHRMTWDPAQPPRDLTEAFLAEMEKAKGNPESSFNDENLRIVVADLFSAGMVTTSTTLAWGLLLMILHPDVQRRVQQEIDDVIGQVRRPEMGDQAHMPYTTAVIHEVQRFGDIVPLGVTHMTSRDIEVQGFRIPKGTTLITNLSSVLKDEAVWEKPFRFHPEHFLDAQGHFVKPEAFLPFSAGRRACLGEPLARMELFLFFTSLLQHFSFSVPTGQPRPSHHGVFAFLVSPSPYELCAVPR

Cytochrome P450 3A4 = Cytochrome P450 3A4 (Homo sapiens, UniProt P08684);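 also: CYP3A4 tested as one member of a cytochrome P450 panel screen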
Chain of Cytochrome P450 3A4 (P08684 whole entry): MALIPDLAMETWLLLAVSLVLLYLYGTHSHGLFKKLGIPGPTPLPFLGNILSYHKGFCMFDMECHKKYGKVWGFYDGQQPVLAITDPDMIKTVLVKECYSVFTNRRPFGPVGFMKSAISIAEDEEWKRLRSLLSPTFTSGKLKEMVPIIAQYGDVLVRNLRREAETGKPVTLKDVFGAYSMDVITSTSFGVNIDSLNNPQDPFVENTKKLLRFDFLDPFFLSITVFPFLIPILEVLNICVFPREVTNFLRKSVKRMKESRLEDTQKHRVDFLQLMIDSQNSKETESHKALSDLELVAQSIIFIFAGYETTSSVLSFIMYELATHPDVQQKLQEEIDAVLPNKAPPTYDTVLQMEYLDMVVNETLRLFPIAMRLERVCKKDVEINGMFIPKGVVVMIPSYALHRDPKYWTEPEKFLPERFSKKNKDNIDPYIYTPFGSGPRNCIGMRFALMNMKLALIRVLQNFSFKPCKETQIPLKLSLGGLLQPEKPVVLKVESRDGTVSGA

Cytochrome P450 2C9 = Cytochrome P450 2C9 (Homo sapiens, UniProt P11712)
Chain of Cytochrome P450 2C9 (P11712 whole entry): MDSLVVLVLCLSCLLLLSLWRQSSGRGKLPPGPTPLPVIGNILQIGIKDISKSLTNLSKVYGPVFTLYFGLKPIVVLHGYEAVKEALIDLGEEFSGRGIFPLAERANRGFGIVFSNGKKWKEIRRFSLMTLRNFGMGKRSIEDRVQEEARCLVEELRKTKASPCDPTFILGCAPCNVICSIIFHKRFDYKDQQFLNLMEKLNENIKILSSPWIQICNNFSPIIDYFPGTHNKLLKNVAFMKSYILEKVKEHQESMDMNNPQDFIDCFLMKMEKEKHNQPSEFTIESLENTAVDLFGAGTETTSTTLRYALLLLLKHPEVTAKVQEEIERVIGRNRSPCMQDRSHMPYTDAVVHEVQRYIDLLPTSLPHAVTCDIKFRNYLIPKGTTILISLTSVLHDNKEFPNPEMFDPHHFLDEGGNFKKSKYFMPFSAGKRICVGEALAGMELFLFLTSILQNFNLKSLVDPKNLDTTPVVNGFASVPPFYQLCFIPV

INS1 = assay: INS-1E survival protection against cytokine death – cell-based, luminescence, retest, dose response (AID 449756); format: functional; settings: Rattus norvegicus;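 also: cell death triggered by IL-1 beta plus TNF-alpha plus IFN-gamma mixture; protective hits raise ATP signal compared with cytokine alone wells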
[2] = NIH3T3 cell viability loss – ATP luminescence, mouse fibroblasts, counter-screen, dose response (AID 2010); format: functional, cell-based;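 also: cells exposed to compound for about 90 hours before reading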
[3] = Trypanosoma cruzi growth suppression in host cells – NIH3T3 host cells, beta-gal luminescence, confirmation (AID 2044); format: functional, cell-based;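 also: intracellular parasites grown in NIH/3T3 mouse fibroblasts as host cells; luminescent beta-galactosidase reporter signal from transgenic T. cruzi replicating inside host cells; inhibitors lower the luminescence signal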
[4] = NIH-3T3 fibroblast cytotoxicity, dose response, cytotoxicity control, cell-based, fluorescence, Alamar Blue, secondary assay (AID 2327); format: functional;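 also: NIH-3T3 mouse fibroblasts cultured with fluconazole at 8 µg/mL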
[5] = fluconazole-exposed Candida albicans growth modulators – fluorescence, retest, confirmation (AID 2467); format: functional, cell-based

EC50 [1]: 0.897 µM (active)
Compound: Cc1cccc(-c2cc3c(nn2)-c2ccccc2C3=O)c1

AC50 (Cytochrome P450 2C19): 25.1 µM (inconclusive)
AC50 (Cytochrome P450 2D6): 20 µM (inconclusive)
Compound: COc1ncc2nc(CCc3ccccc3)c(=O)n(C)c2n1

AC50 (Cytochrome P450 3A4): 20 µM (inconclusive)
Compound: N#Cc1cccc(-c2nc(NCc3ccccc3)c3ccccc3n2)c1

AC50 (Cytochrome P450 2C19): 39.8 µM (inconclusive)
AC50 (Cytochrome P450 2D6): 25.1 µM (inconclusive)
Compound: CCCc1cc2c(n1Cc1cc(F)cc(F)c1)C(C)C1CN(C(=O)c3ccccc3)C(C)(C(=O)OC)C21 (centres undefined)

AC50 (Cytochrome P450 2D6): 12.6 µM (inconclusive)
AC50 (Cytochrome P450 2C9): 20 µM (inconclusive)
Compound: Cc1nc2sccc2c(=O)n1-c1cccc(Cl)c1

AC50 (Cytochrome P450 2C19): 31.6 µM (inconclusive)
AC50 (Cytochrome P450 2D6): 0.0501 µM (inconclusive)
Compound: CCOC(=O)C1C(=O)NC(C)C1c1ccccc1 (centres undefined)

EC50 [1]: > 260 µM (inactive)
Compound: CC(=O)N1N=C(c2ccccc2)CC1c1ccccc1[N+](=O)[O-] (centres undefined)

EC50 [1]: > 260 µM (inactive)
Compound: Cc1ccc[n+](CC(=O)Nc2ccc([N+](=O)[O-])cc2Cl)c1

Compound: CC(C)(C)c1ccc(NNC(=O)C2CCC2)cc1
AC50 (INS1): 7.4 µM (active)

EC50 [1]: > 260 µM (inactive)
Compound: CCSc1nnc(NC(=O)c2cccnc2Cl)s1

EC50 [1]: > 260 µM (inactive)
Compound: CCN(c1ccccc1)S(=O)(=O)c1cc(NC(=O)Nc2ccccc2C#N)ccc1Cl

Compound: S=C(NCCSCc1c(Cl)cccc1Cl)Nc1ccccc1
EC50 [2]: > 60 µM (not active)
EC50 [3]: 2.94 µM (active)
EC50 [4]: > 160 µM (inactive)
AC50 (Cytochrome P450 2C9): 10 µM (inconclusive)

AC50 (Cytochrome P450 2C9): 10 µM (inconclusive)
Compound: COc1cc(/C=C/C(=O)O)cc(S(=O)(=O)NCCCO)c1OC

AC50 (Cytochrome P450 2D6): 17.8 µM (inconclusive)
Compound: CCOc1ccc(NC(=O)N(C2CCCCC2)C(C)c2ccncc2)cc1 (centres undefined)

AC50 (Cytochrome P450 3A4): 25.1 µM (inconclusive)
AC50 (Cytochrome P450 2C9): 3.16 µM (inconclusive)
Compound: Cc1cc(=O)oc(C)c1C(=O)NCc1cccnc1

AC50 (Cytochrome P450 2C9): 1.26 µM (inconclusive)
Compound: CCCn1nnnc1-c1cccc(Cl)c1

AC50 (Cytochrome P450 3A4): 14.1 µM (inconclusive)
AC50 (Cytochrome P450 2C19): 10 µM (inconclusive)
Compound: Cc1cc(C)n(-c2ccc(C(=O)Nc3cc(C(F)(F)F)ccc3N3CCOCC3)cc2)n1

EC50 [1]: > 260 µM (inactive)
Compound: Cc1ccc(C(C)(O)CS(=O)(=O)Cc2ccccc2Cl)cc1 (centres undefined)

EC50 [1]: 106 µM (inconclusive)
Compound: COc1ccc(NC(=O)c2cc(C)n(Cc3cccs3)c2C)cc1

Compound: CCOC(=O)CNC(c1ccccc1)c1cc(Br)ccc1NC(=O)CCN1CCOCC1 (centres undefined)
EC50 [5]: 3.44 µM (active)
EC50 [4]: 39.4 µM (active)

Compound: O=C(Oc1cccc2cccnc12)c1cccc(N2C(=O)C3C4CCC(C4)C3C2=O)c1 (centres undefined)
AC50 (INS1): 16.2 µM (active)

Compound: COc1ccc(/C=C2\N=C(SC)N(C)C2=O)cc1
AC50 (Cytochrome P450 3A4): 28.2 µM (inconclusive)

Compound: Cc1ccc(OCc2cc(C(=O)N(C)Cc3cc(C4CC4)[nH]n3)no2)cc1C
AC50 (INS1): > 260 µM (inactive)

AC50 (Cytochrome P450 2D6): 11.2 µM (inconclusive)
Compound: C=CCn1c(SCC)nc2sc3c(c2c1=O)CCc1ccccc1-3
